{
  "source": "ChEMBL document CHEMBL1201862",
  "about": "“PubChem BioAssay data set” (2004)",
  "test_in_all_cases": "NCI-60 cell line screen, 48 h",
  "key": {"IGROV-1": {"system": "IGROV-1"}, "HOP-62": {"system": "HOP-62"}, "SN12C": {"system": "SN12C"}, "M19-MEL": {"system": "M19-MEL"}, "UO-31": {"system": "UO-31"}, "SF-268": {"system": "SF-268"}, "SK-MEL-2": {"system": "SK-MEL-2"}, "NCI-H460": {"system": "NCI-H460"}, "UACC-62": {"system": "UACC-62"}, "SNB-78": {"system": "SNB-78"}, "DMS-114": {"system": "DMS-114"}, "DMS-273": {"system": "DMS-273"}, "SK-MEL-5": {"system": "SK-MEL-5"}, "KM12": {"system": "KM12"}, "MOLT-4": {"system": "MOLT-4"}, "NCI-H226": {"system": "NCI-H226"}, "SR": {"system": "SR"}, "A498": {"system": "A498"}, "M14": {"system": "M14"}, "HCT-116": {"system": "HCT-116"}, "A549": {"system": "A549"}, "OVCAR-3": {"system": "OVCAR-3"}, "SK-OV-3": {"system": "SK-OV-3"}, "LXFL 529": {"system": "LXFL 529"}, "CCRF-CEM": {"system": "CCRF-CEM"}, "DLD-1": {"system": "DLD-1"}, "ACHN": {"system": "ACHN"}, "OVCAR-4": {"system": "OVCAR-4"}, "XF498": {"system": "XF498"}, "TK-10": {"system": "TK-10"}, "SNB-75": {"system": "SNB-75"}, "SW-620": {"system": "SW-620"}, "EKVX": {"system": "EKVX"}, "Malme-3M": {"system": "Malme-3M"}, "HOP-92": {"system": "HOP-92"}, "KM-20L2": {"system": "KM-20L2"}, "NCI-H522": {"system": "NCI-H522"}, "RXF 393": {"system": "RXF 393"}, "786-0": {"system": "786-0"}, "U-251": {"system": "U-251"}, "SNB-19": {"system": "SNB-19"}, "OVCAR-8": {"system": "OVCAR-8"}, "HL-60": {"system": "HL-60"}, "SF-295": {"system": "SF-295"}, "HT-29": {"system": "HT-29"}, "SF-539": {"system": "SF-539"}, "CAKI-1": {"system": "CAKI-1"}, "SK-MEL-28": {"system": "SK-MEL-28"}, "K562": {"system": "K562"}, "NCI-H23": {"system": "NCI-H23"}},
  "note": "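The compound was tested at five concentrations on cells cultured in 96-well plates, with a 48-hour exposure period. The concentration for 50% growth inhibition is given as GI50.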 The source made the active and inactive calls. Cut-off read from the data, not from the text of the source: active = GI50 up to about 1.1 µM and inactive = higher.",
  "data": [
    {"smiles": "C/C=C1\\CCC2c3[nH]c4ccccc4c3CCN2C1", "note": "(stereo not given)", "values": [
      {"measurement": "GI50", "setting": "IGROV-1", "result": "> 100 µM (inactive)"},
      {"measurement": "GI50", "setting": "HOP-62", "result": "> 100 µM (inactive)"},
      {"measurement": "GI50", "setting": "SN12C", "result": "> 100 µM (inactive)"},
      {"measurement": "GI50", "setting": "M19-MEL", "result": "> 100 µM (inactive)"},
      {"measurement": "GI50", "setting": "UO-31", "result": "38.6 µM (inactive)"},
      {"measurement": "GI50", "setting": "SF-268", "result": "> 100 µM (inactive)"},
      {"measurement": "GI50", "setting": "SK-MEL-2", "result": "> 100 µM (inactive)"},
      {"measurement": "GI50", "setting": "NCI-H460", "result": "> 100 µM (inactive)"},
      {"measurement": "GI50", "setting": "UACC-62", "result": "> 100 µM (inactive)"},
      {"measurement": "GI50", "setting": "SNB-78", "result": "> 100 µM (inactive)"},
      {"measurement": "GI50", "setting": "DMS-114", "result": "91.8 µM (inactive)"},
      {"measurement": "GI50", "setting": "DMS-273", "result": "> 100 µM (inactive)"},
      {"measurement": "GI50", "setting": "SK-MEL-5", "result": "51.2 µM (inactive)"},
      {"measurement": "GI50", "setting": "KM12", "result": "> 100 µM (inactive)"},
      {"measurement": "GI50", "setting": "MOLT-4", "result": "76.4 µM (inactive)"},
      {"measurement": "GI50", "setting": "NCI-H226", "result": "31 µM (inactive)"},
      {"measurement": "GI50", "setting": "SR", "result": "55.5 µM (inactive)"},
      {"measurement": "GI50", "setting": "A498", "result": "> 100 µM (inactive)"},
      {"measurement": "GI50", "setting": "M14", "result": "21.5 µM (inactive)"},
      {"measurement": "GI50", "setting": "HCT-116", "result": "56 µM (inactive)"},
      {"measurement": "GI50", "setting": "A549", "result": "> 100 µM (inactive)"},
      {"measurement": "GI50", "setting": "OVCAR-3", "result": "35.8 µM (inactive)"},
      {"measurement": "GI50", "setting": "SK-OV-3", "result": "> 100 µM (inactive)"},
      {"measurement": "GI50", "setting": "LXFL 529", "result": "> 100 µM (inactive)"},
      {"measurement": "GI50", "setting": "CCRF-CEM", "result": "> 100 µM (inactive)"},
      {"measurement": "GI50", "setting": "DLD-1", "result": "> 100 µM (inactive)"},
      {"measurement": "GI50", "setting": "ACHN", "result": "> 100 µM (inactive)"},
      {"measurement": "GI50", "setting": "OVCAR-4", "result": "32.1 µM (inactive)"},
      {"measurement": "GI50", "setting": "XF498", "result": "17.1 µM (inactive)"},
      {"measurement": "GI50", "setting": "TK-10", "result": "> 100 µM (inactive)"},
      {"measurement": "GI50", "setting": "SNB-75", "result": "61.7 µM (inactive)"},
      {"measurement": "GI50", "setting": "SW-620", "result": "> 100 µM (inactive)"},
      {"measurement": "GI50", "setting": "EKVX", "result": "> 100 µM (inactive)"},
      {"measurement": "GI50", "setting": "Malme-3M", "result": "0.174 µM (active)"},
      {"measurement": "GI50", "setting": "HOP-92", "result": "26.3 µM (inactive)"},
      {"measurement": "GI50", "setting": "KM-20L2", "result": "45.6 µM (inactive)"},
      {"measurement": "GI50", "setting": "NCI-H522", "result": "83.8 µM (inactive)"},
      {"measurement": "GI50", "setting": "RXF 393", "result": "66.4 µM (inactive)"},
      {"measurement": "GI50", "setting": "786-0", "result": "70.1 µM (inactive)"},
      {"measurement": "GI50", "setting": "U-251", "result": "> 100 µM (inactive)"},
      {"measurement": "GI50", "setting": "SNB-19", "result": "> 100 µM (inactive)"},
      {"measurement": "GI50", "setting": "OVCAR-8", "result": "> 100 µM (inactive)"},
      {"measurement": "GI50", "setting": "HL-60", "result": "43.3 µM (inactive)"},
      {"measurement": "GI50", "setting": "SF-295", "result": "> 100 µM (inactive)"},
      {"measurement": "GI50", "setting": "HT-29", "result": "40 µM (inactive)"},
      {"measurement": "GI50", "setting": "SF-539", "result": "> 100 µM (inactive)"},
      {"measurement": "GI50", "setting": "CAKI-1", "result": "> 100 µM (inactive)"},
      {"measurement": "GI50", "setting": "SK-MEL-28", "result": "> 100 µM (inactive)"},
      {"measurement": "GI50", "setting": "K562", "result": "43.6 µM (inactive)"},
      {"measurement": "GI50", "setting": "NCI-H23", "result": "77.4 µM (inactive)"}
    ]}
  ]
}
